Experimental data taken from patent publication US5254577A, “Aminomethyloxooxazolidinyl arylbenzene derivatives useful as antibacterial agents” (The Du Pont Merck Pharmaceutical Company, priority 1992, dated 1993).
≈ marks a conversion by molar mass, not a printed value. Like-named read-outs stand apart in the source and are kept apart here.

Legend:
Escherichia coli = assay: In vitro broth microdilution, 24-hour minimal inhibitory concentration (MIC); format: cell-based; details: Mueller-Hinton broth, read-out: Minimum Inhibitory Concentration
Source text: (§1) A standard microdilution method (National Committee for Clinical Standards. Tentative standard M7-T. Standard methods for dilution antimicrobial susceptibility tests for bacteria that grow aerobically. National Committee for Clinical Laboratory Standards, Villanova, Pa. 1982) with Mueller-Hinton broth is used to determine the 24-hour minimal inhibitory concentrations (MIC's) for test strains of Staphylococcus aureus and Escherichia coli.

Staphylococcus aureus [1] = assay: as above; format: cell-based; details: Mueller-Hinton broth; for MIC: read-out: Minimum Inhibitory Concentration
Source text: as §1

Staphylococcus aureus [2] = assay: In vivo activity against Staphylococcus aureus in an acute lethal mouse model; details: mice infected intraperitoneally, dosed 1 h and 4 h post-infection, survivors on seventh day
Description: The in vivo potency of these compounds is exemplified by the data summarized in Table X. Determinations of in vivo efficacy are performed by inoculating mice intraperitoneally with cultures of the infecting organism diluted to produce 100% mortality in control animals within twenty-four hours. The culture of S. aureus used to infect the animals was diluted to the required bacterial density using 5% aqueous hog gastric mucin. The compounds are dissolved or suspended in 0.25% aqueous Methocel® (Methocel®: Hydroxypropyl Methylcullulose, E15 Premium, Dow Chemical Company) for oral administration or sterile distilled water containing 5% dimethylsulfoxide (Fisher Scientific Company, Fairlawn, N.J.) for subcutaneous administration. The mice are dosed at one hour and at four hours post-infection. Mortality is recorded daily until test determination seven days post infection. The number of survivors in each treatment group on the seventh day after infection is used in the calculation of the ED50, the dose of compound that protects 50% of the mice (Litchfield,J. T. and Wildoxon. A simulated method for evaluating dose-effect experiments. J. Pharmacol Exp. Ther., 98:99-113, 1949).

[3] = Staphylococcus aureus, 168 h, Oral Administration, read-out: ED50
[4] = Staphylococcus aureus, sc, 168 h, Subcutaneous Administration, read-out: ED50

`CC(=O)NC[C@H]1CN(c2ccc(-c3ccc(C(C)O)cc3)cc2)C(=O)O1` (single isomer, unassigned) [Example 27, (l)-N-[3-(4-(4'-(1-Hydroxyethyl)phenyl)phenyl)-2-oxooxazolidin-5-ylmethyl]acetamide] showed an MIC (Escherichia coli) greater than 128 µg/mL, an MIC (Staphylococcus aureus [1]) of 0.5 µg/mL (≈ 1.41 µM) and an ED50 (Staphylococcus aureus [2]; [3]) of 6.6 mg/kg. For the same compound, the ED50 (Staphylococcus aureus [2]; [4]) was 7.6 mg/kg.
With `CC(=O)NC[C@H]1CN(c2ccc(-c3ccc(C(=O)C(C)CN4CCN(C)CC4)cc3)cc2)C(=O)O1` (stereo partly shown) [Example 62] the MIC (Escherichia coli) was greater than 128 µg/mL, the MIC (Staphylococcus aureus [1]) was 2 µg/mL (≈ 4.18 µM) and the ED50 (Staphylococcus aureus [2]; [3]) was 51.9 mg/kg. The ED50 (Staphylococcus aureus [2]; [4]) was 10 mg/kg.
Compound `CCCCCN(CCCCC)Cc1ccc(-c2ccc(N3C[C@H](CNC(C)=O)OC3=O)cc2)cc1` [Example 47] has an MIC (Escherichia coli) greater than 128 µg/mL and an MIC (Staphylococcus aureus [1]) of 0.5 µg/mL (≈ 1.04 µM).
With `CC(=O)NC[C@H]1CN(c2ccc(-c3ccc(OCCN(C)C)cc3)cc2)C(=O)O1` [Example 66, (l)-N-[3-(4-(4'-N,N-Dimethylaminoethyloxyphenyl)phenyl)-2-oxooxazolidin-5-ylmethyl]acetamide] the MIC (Escherichia coli) was greater than 128 µg/mL and the MIC (Staphylococcus aureus [1]) was 0.5 µg/mL (≈ 1.26 µM).
For `CC(=O)NC[C@H]1CN(c2ccc(-c3ccc(C=O)cc3)cc2)C(=O)O1` [Example 21, (l)-N-[3-(4-(4'-Formylphenyl)phenyl)-2-oxooxazolidin-5-ylmethyl]acetamide], the MIC (Escherichia coli) was greater than 128 µg/mL, the MIC (Staphylococcus aureus [1]) was less than 0.13 µg/mL and the ED50 (Staphylococcus aureus [2]; [3]) was 44.7 mg/kg. The ED50 (Staphylococcus aureus [2]; [4]) was greater than 90 mg/kg.
Work on `CC(=O)NC[C@H]1CN(c2ccc(-c3cccc[n+]3[O-])cc2)C(=O)O1` [Example 87] yielded an MIC (Escherichia coli) greater than 128 µg/mL, an MIC (Staphylococcus aureus [1]) of 32 µg/mL (≈ 97.8 µM) and an ED50 (Staphylococcus aureus [2]; [3]) of 16.1 mg/kg. It also gave an ED50 (Staphylococcus aureus [2]; [4]) of 9.8 mg/kg.
`CC(=O)NC[C@H]1CN(c2ccc(-c3csc(C)n3)cc2)C(=O)O1` [Example 132] was tested, and the MIC (Escherichia coli) was greater than 128 µg/mL, the MIC (Staphylococcus aureus [1]) was 4 µg/mL (≈ 12.1 µM) and the ED50 (Staphylococcus aureus [2]; [4]) was 17 mg/kg.
Work on `CC(=O)NC[C@H]1CN(c2ccc(-c3ccc(C(C)=NN4CCN(C)CC4)cc3)cc2)C(=O)O1` [Example 25, (l)-N-[3-(4-(4'-Acetylphenyl)phenyl)-2-oxooxazolidin-5-ylmethyl]acetamide 4-Methylpiperazinylhydrazone] yielded an MIC (Escherichia coli) greater than 128 µg/mL, an MIC (Staphylococcus aureus [1]) of 2 µg/mL (≈ 4.45 µM) and an ED50 (Staphylococcus aureus [2]; [3]) of 13.9 mg/kg. The ED50 (Staphylococcus aureus [2]; [4]) was 5.8 mg/kg.
In the case of `CC(=O)NC[C@H]1CN(c2ccc(-c3cccc([S+](C)[O-])c3)cc2)C(=O)O1` (single isomer, unassigned) [Example 65], the MIC (Escherichia coli) is reported as greater than 128 µg/mL, the MIC (Staphylococcus aureus [1]) is reported as 2 µg/mL (≈ 5.37 µM) and the ED50 (Staphylococcus aureus [2]; [4]) is reported as 4.3 mg/kg.
With `CC(=O)NC[C@H]1CN(c2ccc(-c3ccc[n+]([O-])c3)cc2)C(=O)O1` [Example 89] the MIC (Escherichia coli) was greater than 128 µg/mL, the MIC (Staphylococcus aureus [1]) was 2 µg/mL (≈ 6.11 µM) and the ED50 (Staphylococcus aureus [2]; [3]) was 2 mg/kg. For the same compound, the ED50 (Staphylococcus aureus [2]; [4]) was less than 3.3 mg/kg.
With `CC(=O)NC[C@H]1CN(c2ccc(-c3ccc(I)cc3)cc2)C(=O)O1` [Example 20, (l)-N-[3-(4-(4'-Iodophenyl)phenyl)-2-oxooxazolidin-5-ylmethyl]acetamide] the MIC (Escherichia coli) was greater than 128 µg/mL, the MIC (Staphylococcus aureus [1]) was 8 µg/mL (≈ 18.3 µM) and the ED50 (Staphylococcus aureus [2]; [3]) was greater than 90 mg/kg. For the same compound, the ED50 (Staphylococcus aureus [2]; [4]) was greater than 90 mg/kg.
Compound `CCCN(CCC)Cc1ccc(-c2ccc(N3C[C@H](CNC(C)=O)OC3=O)cc2)cc1` [Example 44, (l)-N-[3-(4-(4'-di-n-propylaminomethylphenyl)phenyl)-2-oxooxazolidin-5-ylmethyl]acetamide] has an MIC (Escherichia coli) greater than 128 µg/mL, an MIC (Staphylococcus aureus [1]) of 4 µg/mL (≈ 9.44 µM) and an ED50 (Staphylococcus aureus [2]; [3]) of 8.6 mg/kg. For the same compound, the ED50 (Staphylococcus aureus [2]; [4]) was 3.7 mg/kg.
Compound `CC(=O)NC[C@H]1CN(c2ccc(-c3cccnc3)cc2)C(=O)O1` [Example 88] has an MIC (Escherichia coli) greater than 128 µg/mL, an MIC (Staphylococcus aureus [1]) of less than 0.13 µg/mL and an ED50 (Staphylococcus aureus [2]; [3]) of 1.6 mg/kg. For the same compound, the ED50 (Staphylococcus aureus [2]; [4]) was 0.5 mg/kg.
With `CC(=O)NC[C@H]1CN(c2ccc(-c3cc(O)ccc3O)cc2)C(=O)O1` [Example 113, (l)-N-[3-(4-(2',5'-Dihydroxyphenyl)phenyl)-2-oxooxazolidin-5-ylmethyl]acetamide] the MIC (Escherichia coli) was greater than 128 µg/mL, the MIC (Staphylococcus aureus [1]) was 16 µg/mL (≈ 46.7 µM) and the ED50 (Staphylococcus aureus [2]; [3]) was greater than 90 mg/kg. It also gave an ED50 (Staphylococcus aureus [2]; [4]) of 68.3 mg/kg.
Work on `CC(=O)NC[C@H]1CN(c2ccc(-c3ccc(C(C)NN4CCN(C)CC4)cc3)cc2)C(=O)O1` (single isomer, unassigned) [Example 26, (l)-N-[3-(4-(4'-(1-(4-Methylpiperazinylamino)ethyl))phenyl)phenyl-2-oxooxazolidin-5-ylmethyl]acetamide] yielded an MIC (Escherichia coli) greater than 128 µg/mL and an MIC (Staphylococcus aureus [1]) of 1 µg/mL (≈ 2.21 µM).
`CC(=O)NC[C@H]1CN(c2ccc(-c3cncc4ccccc34)cc2)C(=O)O1` [Example 92] was tested, and the MIC (Escherichia coli) was greater than 128 µg/mL and the MIC (Staphylococcus aureus [1]) was 2 µg/mL (≈ 5.53 µM).
Work on `CC(=O)NC[C@H]1CN(c2ccc(-c3ccc(C(=O)CC(C)(C)C(=O)O)cc3)cc2)C(=O)O1` [Example 10] yielded an MIC (Escherichia coli) greater than 128 µg/mL and an MIC (Staphylococcus aureus [1]) of 0.5 µg/mL (≈ 1.14 µM).
For `CC(=O)NC[C@H]1CN(c2ccc(-c3ccc(C(C)OC(=O)CCC(=O)O)cc3)cc2)C(=O)O1` (stereo partly shown) [Example 30], the “Minimum Inhibitory Concentration” value (Staphylococcus aureus [1]) was 4 µg/mL and the ED50 (Staphylococcus aureus [2]; Subcutaneous Administration, 10080 min) was 9.8 mg/kg.
